Experimental findings from patent publication US20220096516A1, “OLIGONUCLEOTIDE MOLECULE AND APPLICATION THEREOF IN TUMOR THERAPY” (Ractigen Therapeutics, priority 2019, published 2022) are described below.

d = 2'-deoxy (DNA); r = 2'-OH (RNA)

Data set [1] deals with LHPP gene. Briefly: High-throughput screening of saRNAs targeting LHPP promoter: LHPP mRNA by one-step RT-qPCR in Huh7 cells. It is filed as cell-based, human. The conditions noted are these: 10 nM saRNA, 72 hours, relative to control (Mock). A digest of the protocol:
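Huh7 cells were transfected with 10 nM saRNA using RNAiMax and lysed 72 h later. LHPP mRNA was quantified by one-step RT-qPCR in triplicate wells. Expression was normalised to HPRT1 and TBP and given as fold change versus mock-transfected cells.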

Data set [2] deals with Hep3B cells. The data set is described as follows: Cell viability by CCK-8 method, Hep3B. Particulars: 10 nM, 72 h, FIG. 6B. It counts as cell-based, human. On the procedure:
(§1) 8 LHPP promoter-targeting saRNAs were individually transfected into liver cancer cells at 10 nM for 72 h. In FIG. 6A, the expression level of LHPP mRNA was analyzed by RT-qPCR. In FIG. 6B, cell viability in the saRNA treatment group was evaluated by the CCK-8 method and recorded as a percentage relative to the viability of cells in a control (Mock) treatment group.
(§2) The cell viability was detected by the following CCK-8 method: the cCells were plated into a 96-well plate at 3-5×10^3 cells/well, cultured overnight, and transfected with the oligonucleotide duplexes. After 72 hour of transfection, 10 uL of CCK-8 solution (Dojindo Molecular Technologies) was added into each well. After 1 hour of incubation at 37° C., a microplate reader was used to measure absorbances at 450 nm. […]

In data set [3] the test system is SK-HEP-1 cells. Briefly: Cell viability by CCK-8 method, SK-HEP-1. It is filed as cell-based, human. Particulars: SK-HEP-1, 10 nM, 72 h, FIG. 6B. On the procedure:
as §1, §2

The test system of data set [4] is HepG2 transplanted tumor. The data set is described as follows: HepG2 transplanted tumor growth in nude mice. On the set-up: species or system BALB/c nude mice. The conditions noted are these: HepG2 xenograft, day 13; saRNA (in vivo-jetPEI) 1 mg/kg intratumor days 1, 4, 7, 10; regorafenib 3 mg/kg intragastric daily day 1-12; vehicle 118%. On the procedure:
To prepare the saRNA formulation, the in vivo-jetPEI (201-10G, Polyplus-transfection, France) was adopted as an saRNA delivery system. The preparation process is briefly described as follows. An saRNA was first diluted in 10% glucose solution to obtain a solution A. According to the instructions of the manufacturer, a required amount of in vivo-jetPEI was diluted in 10% glucose solution to obtain a solution B. Equal volumes of the solution A and the solution B were mixed (nitrogen-to-phosphorus ratio: 8; final concentration of glucose: 5%). After mixing, the mixture was let to stand at room temperature for 15 minutes for later use.
HepG2 cells in the logarithmic growth phase were obtained and counted, and then the cell suspension was regulated to 5×10^7 cells/mL and subcutaneously inoculated into the right armpit of BALB/c nude mice at a volume of 0.1 mL per mouse. […] Starting from the initial administration, the long diameter and the short diameter of each tumor were measured with a vernier caliper every two days. The tumor volume was calculated according to the formula V=(l×w^2)/2, wherein 1 represents the longest diameter of the tumor and w represents the diameter parallel to the surface of the tumor and perpendicular to the long diameter. A tumor growth curve and size and morphology of the tumor after anatomy were recorded during the administration.

Turning to “RAG7-133: saRNA duplex; sense GCUCUUUGUCCGCUGAUCUTT (SEQ ID NO: 1), antisense AGAUCAGCGGACAAAGAGCTT (SEQ ID NO: 165) (sugars from the 5' end r19 d2, backbone not given here)”, in data set [1], the “Fold of changes in relative LHPP mRNA expression level” value came to 2.54 fold and the “Fold of changes in relative LHPP mRNA expression level (log2)” value is reported as 1.35 log2. Also, the “cell proliferation (cell viability, CCK-8)” value in data set [2] was “inhibited cell proliferation”. Further, the “cell proliferation (cell viability, CCK-8)” value in data set [3] was “inhibited cell proliferation”. The “tumor volume increase compared with that at the beginning of treatment” value in data set [4] amounted to 34%.
